From PubChem BioAssay (NCI)
Several values for one entry are separate records, joined by “and”; a condition that tells them apart may be missing. Equal entries are not always repeated.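 Values below derive from 48-hour exposures of cells grown in 96-well plates, with endpoints linearly interpolated between the two concentrations bracketing the appropriate inhibition level. GI50 marks 50% less growth. TGI: concentration producing complete growth inhibition.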

Experiments:
Assay in all cases: NCI-60 cell line screen, 48 h
786-0 renal = tested on: 786-0 renal
HCC-2998 colon = tested on: HCC-2998 colon
HL-60(TB) leukemia = tested on: HL-60(TB) leukemia
HT29 colon = tested on: HT29 colon
KM12 colon = tested on: KM12 colon
M14 melanoma = tested on: M14 melanoma
NCI-H226 lung = tested on: NCI-H226 lung
NCI-H522 lung = tested on: NCI-H522 lung
SK-MEL-2 melanoma = tested on: SK-MEL-2 melanoma
SK-OV-3 ovarian = tested on: SK-OV-3 ovarian

SMILES	TGI (786-0 renal)	TGI (HCC-2998 colon)	TGI (HL-60(TB) leukemia)	TGI (HT29 colon)	TGI (KM12 colon)	TGI (M14 melanoma)	TGI (NCI-H226 lung)	TGI (NCI-H522 lung)	TGI (SK-MEL-2 melanoma)	TGI (SK-OV-3 ovarian)	GI50 (786-0 renal)	GI50 (HCC-2998 colon)	GI50 (HL-60(TB) leukemia)	GI50 (HT29 colon)	GI50 (KM12 colon)	GI50 (M14 melanoma)	GI50 (NCI-H226 lung)	GI50 (NCI-H522 lung)	GI50 (SK-MEL-2 melanoma)	GI50 (SK-OV-3 ovarian)
COc1ccc(NC(=O)CC/C(CC(=O)c2ccco2)=N/NC(=O)C(N)=O)cc1	> 100 µM	> 100 µM	> 100 µM	> 100 µM	> 100 µM	> 100 µM	> 100 µM	> 100 µM	> 100 µM	> 100 µM										
C=C(C)C1CC2(C)C(C)CC(O)CC2C(OC(=O)C=C(C)C)C1O (centres undefined)	> 100 µM	> 100 µM	50.5 µM	69.8 µM	> 100 µM	> 100 µM	46.2 µM	> 100 µM	> 100 µM	> 100 µM										
Cc1cc(Cl)ccc1OCC(=O)Nc1nc2c(Cl)cccc2s1	> 100 µM	> 100 µM	> 100 µM	> 100 µM	> 100 µM	> 100 µM	> 100 µM	> 100 µM	> 100 µM	> 100 µM	26400 nM	> 100000 nM	5630 nM	> 100000 nM	43.5 µM	> 100 µM	53.3 µM	46.9 µM	> 100000 nM	96.2 µM
C=CC(=O)N1CCC(Oc2cc3c(Nc4ccc(Cl)c(Cl)c4F)ncnc3cc2OC)CC1	17.7 µM and > 10 µM	24.8 µM and > 10 µM	48.5 µM and > 10 µM	13.7 µM and > 9.34 µM	27.1 µM and > 10 µM	20.2 µM and > 10 µM	16.2 µM and > 10 µM	4.19 µM and 0.782 µM	27 µM and 6.41 µM		1960 nM and 1630 nM	7610 nM and 2520 nM	8970 nM and 3770 nM	1710 nM and 1520 nM	7.96 µM and 4.12 µM	4 µM and 3.1 µM	1.84 µM and 0.944 µM	< 0.01 µM and 0.00141 µM	6150 nM and 1950 nM	< 0.001 µM
Nc1n[nH]c2cccc(C#Cc3cccc(NC(=O)c4cccc(C(F)(F)F)c4)c3)c12	8.74 µM	7.31 µM	4.55 µM	12.8 µM	19.8 µM	10 µM	20.3 µM	18.1 µM	6.95 µM	10.2 µM	3030 nM	2430 nM	875 nM	2980 nM	4.52 µM	1.88 µM	0.86 µM	4.42 µM	1360 nM	3.19 µM
N/N=C\c1c2ccccc2c(=O)n2c1oc1ccccc12	61.7 µM	30.5 µM	50.9 µM	> 100 µM	27.7 µM	83.6 µM	33.9 µM	46 µM	> 100 µM	34.3 µM	26700 nM	16500 nM	21100 nM	22100 nM	14.6 µM	27.3 µM	14.6 µM	13.6 µM	26500 nM	17.6 µM
COc1ccc([C@@]2(O)c3c(ccc(O)c3OC)[C@H]2OC)c(OC)c1	> 100 µM	> 100 µM	> 100 µM	> 100 µM	> 100 µM	> 100 µM	> 100 µM	85.4 µM	> 100 µM	> 100 µM										
NC(CSC(c1ccccc1)(c1ccccc1)c1ccccc1)C(=O)NCC(=O)O (centres undefined)	> 100 µM	22.2 µM	12 µM	97.6 µM	38.4 µM	23.2 µM	> 100 µM	7.13 µM	7.93 µM	43.7 µM	6780 nM	2570 nM	2850 nM	22000 nM	3.96 µM	3.73 µM	23.4 µM	2.39 µM	2710 nM	4.33 µM
COC(=O)c1ccc2[nH]c(O)c(C(=Nc3ccc(N(C)C(=O)CN4CCN(C)CC4)cc3)c3ccc4c(c3)OCO4)c2c1	2.14 µM	2.69 µM	1.82 µM	> 27.8 µM	1.69 µM	1.8 µM	6.13 µM	3.66 µM	3.69 µM	1.19 µM	692 nM	1000 nM	415 nM	553 nM	0.0429 µM	0.538 µM	0.616 µM	0.859 µM	1240 nM	0.197 µM
Cc1ccc(C)c(NC(=O)CC2Sc3ccccc3NC2=O)c1 (centres undefined)	30.7 µM and 58.6 µM	34.8 µM and > 100 µM	> 100 µM	> 100 µM	> 100 µM	> 100 µM	28.6 µM and 67.2 µM	60.6 µM and > 93.8 µM	> 100 µM	38.3 µM and 48.3 µM		19000 nM and 61900 nM		31400 nM and > 100000 nM	22.7 µM and > 100 µM		15.9 µM and 37.2 µM	21.7 µM and 45.6 µM		
C[C@]12CCc3sc(Nc4ccc(OC(F)(F)F)cc4)nc3C1=CC[C@@H]1[C@@H]2CC[C@]2(C)C(=O)CC[C@@H]12	3.28 µM	18.6 µM	4.44 µM	10.9 µM	15 µM	8.72 µM	44.1 µM	4.56 µM	11.6 µM	10 µM	1450 nM	5320 nM	1930 nM	2390 nM	3.56 µM	3.29 µM	6.37 µM	2.14 µM	3000 nM	3.04 µM
O=C(Nc1ccc(C(F)(F)F)cc1[N+](=O)[O-])C(=O)C1NC(=S)NC1=O (centres undefined)	> 100 µM	> 100 µM	> 100 µM	> 100 µM	> 100 µM	> 100 µM	24.1 µM	> 100 µM	> 100 µM	> 100 µM										
O=S(=O)(C1=CC(S(=O)(=O)c2ccccc2)CN(Cc2ccccc2)C1c1cccc2ccccc12)c1ccccc1 (centres undefined)	> 69 µM	> 69 µM	> 69 µM	> 69 µM	> 69 µM	> 69 µM	> 69 µM	> 69 µM	> 69 µM	> 69 µM										
O=C(NC(=O)c1c(F)cccc1F)Nc1cccc(Oc2ncc(Cl)cn2)c1	> 100 µM	> 27.3 µM	> 100 µM	> 46.4 µM	> 100 µM	> 100 µM	> 100 µM	> 100 µM	> 100 µM	> 93.3 µM										
CCCCCCCCCCCCCP(=O)(O)O	> 100 µM	> 100 µM	> 100 µM	> 100 µM	> 100 µM	> 100 µM	> 100 µM	> 100 µM	> 100 µM	> 100 µM										
O=C(/C=C/c1ccccc1)Nc1ncc(Cc2ccccc2Cl)s1	> 100 µM	> 100 µM	0.872 µM	> 100 µM	> 100 µM	> 100 µM	> 100 µM	> 100 µM	> 100 µM	> 100 µM	774 nM	361 nM	285 nM	331 nM	0.288 µM	0.236 µM	0.35 µM	0.474 µM	1250 nM	0.79 µM
N[C@H](C(=O)O)[C@@H]1CC(Cl)=NO1	> 1000 µM	329 µM		> 811 µM	> 741 µM	> 1000 µM	> 316 µM	271 µM	355 µM	> 584 µM			4890 nM	7440 nM		38.9 µM	39.9 µM and 10.8 µM		27100 nM	34.5 µM
O=C1C=C(Nc2ccccc2C(=O)CC(=O)C(=O)Nc2cccc([N+](=O)[O-])c2)c2ccccc2C1=O	> 100 µM	> 100 µM	15.6 µM	> 100 µM	> 100 µM	> 100 µM	> 100 µM	70.6 µM	> 100 µM	> 100 µM										
CN(c1ccc(NC(=O)Nc2c(Cl)cccc2Cl)cc1)c1ccnc(Nc2cccc(CS(C)(=O)=O)c2)n1	10.6 µM	16.8 µM	> 25 µM	7.81 µM	5.12 µM	11.6 µM	> 20.2 µM	9.23 µM	11.9 µM	12 µM	3630 nM	4780 nM	24600 nM	2160 nM	0.104 µM	2.64 µM	4.67 µM	3.1 µM	5000 nM	4.72 µM
COc1cc(C2c3cc4c(cc3OC(C)(N3CCCC3)C2C)OCO4)cc(OC)c1OC (centres undefined)	> 100 µM	2.57 µM	0.685 µM	0.836 µM	9.45 µM	4.81 µM	2.05 µM	0.612 µM	52.1 µM	> 62.6 µM										
CCCCCCCCn1ccc2cc(NC(=O)Cn3cc(CN4CCCCCC4)nn3)ccc21	3.07 µM	3.35 µM	3.75 µM	3.46 µM	3.27 µM	3.23 µM	5.07 µM	3.59 µM	3.6 µM	3.33 µM	1680 nM	1780 nM	1870 nM	1730 nM	1.73 µM	1.67 µM	2.23 µM	1.85 µM	1930 nM	1.75 µM
CCOc1cccc(/C=N/NC(=O)c2cccc(Nc3ccnc(C(F)(F)F)c3)c2)c1O	> 20.7 µM	> 100 µM	1.01 µM	> 82.7 µM	17.6 µM	7.88 µM	9.82 µM	32.5 µM	39.9 µM	33.1 µM	1180 nM	1450 nM	262 nM	5340 nM	1.48 µM	1.22 µM	0.827 µM	4.54 µM	8500 nM	0.796 µM
CNC(=O)OCc1nc(SSC(C)(C)C)n(C)c1COC(=O)NC	9.12 µM	22.4 µM	2.66 µM	13.3 µM	38.8 µM	4.13 µM	28.3 µM	2.69 µM	19.5 µM	31.1 µM										
